# Data from patent US12622912B2, “Application of pyrido[1,2-a]pyrimidinone analog” (GUANGZHOU JOYO PHARMATECH CO., LTD, priority 2021, dated 2026).
# Where two headings read alike, the source gives them in different places.
# Columns and labels:
# [1] = system: PIK3CA-mutated cervical cancer cells; assay: CTG cell proliferation, cervical cancer cell lines; type: cell-based; settings: across PIK3CA-mutated cervical cancer cell lines, 72 hours, Alpelisib: in two cell lines, read-out: half inhibitory concentration
# From the text: (2) Reagents • 1) FBS (fetal bovine serum) (purchased from ExCell, product number: FND500); • 2) RPMI1640 medium (purchased from Hyclone, product number: SH30809.01); • 3) McCoy's 5A medium (purchased from Gibco, product number: 12330-031); • 4) MEM medium (purchased from Hyclone, product number: SH30024.01; • 5) MEM NEAA (purchased from Gibco, product number: 11140-050); • 6) Sodium pyruvate (purchased from Gibco). […]
# Step 1: Cells in exponential growth phase were harvested, and viable cells were counted with a Vi-Cell XR cytometer. […]
# (§1) Step 3: After 72 hours of drug treatment, 50 μL (½ culture volume) CTG solution that was melted and equilibrated to room temperature was added to each well according to the CTG operation instruction. […] After 10 minutes, the fluorescence signal value was measured with an Envision2104 plate reader.
# (§2) Cell survival rate was calculated using the formula: Vsample/Vvehicle control×100%. Where, Vsample was the reading of the drug treatment group, and Vvehicle control was the average value of the solvent control group. GraphPad Prism 5.0 software was used, and a S-type dosage-survival rate curve was drawn using a nonlinear regression model and IC50 value was calculated.
# [2] = system: C-33A PIK3CA-mutated cervical cancer cell line; assay: CTG cell proliferation, C-33A; type: cell-based; settings: Homo sapiens, 72 hours, read-out: Absolute IC50
# From the text: (2) Reagents • 1) FBS (fetal bovine serum) (purchased from ExCell, product number: FND500); • 2) RPMI1640 medium (purchased from Hyclone, product number: SH30809.01); • 3) McCoy's 5A medium (purchased from Gibco, product number: 12330-031); • 4) MEM medium (purchased from Hyclone, product number: SH30024.01; • 5) MEM NEAA (purchased from Gibco, product number: 11140-050); • 6) Sodium pyruvate (purchased from Gibco). (3) Test Article and Positive Control Article • Test article: compound I; Positive Control Article: • 1) Alpelisib, molecular weight: 441.47; solvent: DMSO; storage condition after dissolution: −20° C.; supplier: Shanghai TOPSCIENCE Biochemical Technology Co., Ltd., CAS number: 1217486-61-7; • 2) Cisplatin, molecular weight: 300.05; solvent: PBS (phosphate buffer saline); storage condition: 2-8° C.; supplier: Qilu Pharmaceutical. (4) The CTG Method was Used to Determine the Cell Proliferation IC50 of the Compound
# Step 1: Cells in exponential growth phase were harvested, and viable cells were counted with a Vi-Cell XR cytometer. The cell suspension was adjusted to an appropriate concentration with medium. 90 μL of cell suspension was added to each well of a 96-well cell culture plate, and the final cell concentration was 1500-6000 cells/well. […]
# as §1, §2
# [3] = system: BT-474 PIK3CA-mutated breast cancer cell line; assay: CTG cell proliferation, BT-474; type: cell-based, human; settings: BT-474, CTG, 72 hours, read-out: Absolute IC50
# From the text: (§3) (2) Reagents • 1) FBS (fetal bovine serum) (purchased from ExCell, product number: FND500); • 2) DMEM medium (purchased from Gibco, product number: C11995500BT); • 3) Insulin (purchased from Gibco, product number: EPX010-12003-901); • 4) RPMI1640 medium (purchased from Hyclone, product number: SH30809.01); • 5) MEM medium (purchased from Hyclone, product number: SH30024.01). (3) Test Article and Positive Control Article • Test article: compound I; • Positive control article: Cisplatin, Molecular weight: 300.05; Solvent: PBS (phosphate buffer saline); Storage condition: 2-8° C.; Supplier: Qilu Pharmaceutical. (4) The CTG Method was Used to Determine the Cell Proliferation IC50 of the Compound.
# (§4) Step 1: Cells in exponential growth phase were harvested, and viable cells were counted with a Vi-Cell XR cytometer. The cell suspension was adjusted to an appropriate concentration with medium. 90 μL of cell suspension was added to each well of a 96-well cell culture plate, and the final cell concentration was 1500-6000 cells/well.
# (§5) Step 2: The initial concentration of administration of compound I was 3 μM, and the initial concentration of administration of the control drug Cisplatin was 100 μM, and serially diluted 3-fold, a total of 9 concentration gradients and a DMSO control, the final concentration of DMSO in each well was 0.1%, placed in a 37° C., 5% CO2 incubator for 72 hours.
# as §1, §2
# [4] = system: T47D PIK3CA-mutated breast cancer cell line; assay: CTG cell proliferation, T47D; type: cell-based; settings: 72 hours, read-out: Absolute IC50
# From the text: as §3, §4, §5, §1, §2
# [5] = target: T1, human PI3K p110α (E542K)/p85α (Homo sapiens, UniProt P42336, E542K); assay: HTRF kinase activity assay, E542K mutant; type: biochemical
# T1 construct: purchased Millipore 14-782
# Method: Main reagents: human PI3K p110α/p85α (purchased from Promega, Cat. No. V1721), human PI3K p110α (E542K)/p85α (purchased from Millipore, Cat. No. 14-782), human PI3K p110α (E545K)/p85α (purchased from Millipore, Cat. No. 14-783) and human PI3K p110α (H1047R)/p85α (purchased from Millipore, Cat. No. 14-792)
# 1) Compound was prepared. The initial concentration of compound I was 100 nM, and was serially diluted 3-fold to 10 concentrations and transferred to the test plate.
# 2) Human PI3K p110α/p85α, human PI3K p110α (E542K)/p85α, human PI3K p110α (E545K)/p85α or human PI3K p110α (H1047R)/p85α and assay buffer (10 μM phosphatidylinositol 4,5-bisphosphate and Mg/ATP) were incubated. The reaction was initiated by adding ATP solution and incubated for 30 min.
# 3) After incubation for 30 minutes, the reaction was terminated by adding stop solution. The stop solution contained EDTA, biotinylated phosphatidylinositol-3,4,5-trisphosphate.
# 4) Detection buffer was added, europium-tagged anti-GST monoclonal antibody, GST-tagged GRP1 PH domain, and streptavidin allophycocyanin.
# 5) The plate was read and the HTRF value was calculated according to the formula HTRF=10000×(Em665 nm/Em620 nm). GraphPad Prism 5.0 software was used, and a S-type dosage-survival rate curve was drawn using a nonlinear regression model and IC50 value was calculated.
# T1 sequence (P42336 whole entry E542K): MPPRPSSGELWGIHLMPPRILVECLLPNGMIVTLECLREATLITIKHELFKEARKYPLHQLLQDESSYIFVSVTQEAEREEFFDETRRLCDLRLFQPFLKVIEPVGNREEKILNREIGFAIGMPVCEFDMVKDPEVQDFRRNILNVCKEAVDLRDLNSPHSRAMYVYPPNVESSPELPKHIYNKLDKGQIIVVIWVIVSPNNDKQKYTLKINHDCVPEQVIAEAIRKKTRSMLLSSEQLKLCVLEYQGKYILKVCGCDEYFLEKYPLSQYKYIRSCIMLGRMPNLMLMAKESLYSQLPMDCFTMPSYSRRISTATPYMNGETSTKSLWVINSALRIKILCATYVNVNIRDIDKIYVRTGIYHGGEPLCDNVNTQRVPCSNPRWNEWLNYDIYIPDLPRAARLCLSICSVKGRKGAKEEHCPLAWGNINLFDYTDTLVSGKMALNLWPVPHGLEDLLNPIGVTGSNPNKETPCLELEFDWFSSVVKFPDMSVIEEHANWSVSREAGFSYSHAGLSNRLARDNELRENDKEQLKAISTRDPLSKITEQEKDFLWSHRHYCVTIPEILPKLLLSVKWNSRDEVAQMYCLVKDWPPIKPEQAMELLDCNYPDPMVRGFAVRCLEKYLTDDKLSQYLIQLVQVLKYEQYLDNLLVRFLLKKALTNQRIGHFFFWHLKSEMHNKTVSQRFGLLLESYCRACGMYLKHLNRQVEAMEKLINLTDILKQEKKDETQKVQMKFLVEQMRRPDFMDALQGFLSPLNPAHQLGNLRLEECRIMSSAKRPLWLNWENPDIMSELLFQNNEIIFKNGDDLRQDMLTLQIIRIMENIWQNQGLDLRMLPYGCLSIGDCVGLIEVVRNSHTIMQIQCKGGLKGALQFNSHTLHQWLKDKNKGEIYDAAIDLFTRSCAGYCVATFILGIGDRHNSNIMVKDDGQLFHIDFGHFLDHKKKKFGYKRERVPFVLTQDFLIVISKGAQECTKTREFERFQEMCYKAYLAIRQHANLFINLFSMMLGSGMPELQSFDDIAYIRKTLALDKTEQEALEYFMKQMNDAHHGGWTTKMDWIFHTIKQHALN
# T1 sequence (P27986 whole entry partner): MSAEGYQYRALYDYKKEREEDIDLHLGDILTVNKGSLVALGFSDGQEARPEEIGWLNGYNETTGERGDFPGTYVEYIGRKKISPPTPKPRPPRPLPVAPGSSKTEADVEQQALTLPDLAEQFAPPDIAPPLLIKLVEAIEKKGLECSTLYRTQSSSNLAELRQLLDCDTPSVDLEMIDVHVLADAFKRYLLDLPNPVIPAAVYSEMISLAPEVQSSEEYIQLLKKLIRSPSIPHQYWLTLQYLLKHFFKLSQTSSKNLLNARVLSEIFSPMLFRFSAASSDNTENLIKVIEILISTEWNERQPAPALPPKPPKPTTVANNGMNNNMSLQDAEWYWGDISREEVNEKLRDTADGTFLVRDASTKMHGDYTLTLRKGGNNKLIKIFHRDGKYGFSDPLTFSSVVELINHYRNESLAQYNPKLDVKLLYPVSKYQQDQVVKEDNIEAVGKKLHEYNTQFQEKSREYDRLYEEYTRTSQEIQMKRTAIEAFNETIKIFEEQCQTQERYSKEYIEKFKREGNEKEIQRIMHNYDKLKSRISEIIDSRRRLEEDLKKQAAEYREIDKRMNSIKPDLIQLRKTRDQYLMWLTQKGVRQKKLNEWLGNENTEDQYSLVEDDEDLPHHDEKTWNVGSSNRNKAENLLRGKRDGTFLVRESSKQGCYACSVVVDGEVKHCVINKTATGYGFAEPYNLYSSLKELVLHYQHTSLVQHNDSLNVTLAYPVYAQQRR
structure (smiles),measurement,setting,value
COCCOc1cnc2ccc(-c3cnc(OC)c(NS(=O)(=O)c4sc(C)nc4C)c3)cn2c1=O [Compound I],IC50,[1],15 to 180 nM
same,IC50,[2],180 nM
same,IC50,[3]; listed as compound I,< 1000 nM
same,IC50,[3],21 nM
same,IC50,[4]; listed as compound I,< 1000 nM
same,IC50,[4],17 nM
same,IC50,[5],3 nM
